Data on 2 compounds can be found in PMC8878324, “Evaluation of New Antimicrobial Agents Based on tris(1H-Indol-3-yl)methylium Salts: Activity, Toxicity, Suppression of Experimental Sepsis in Mice” (Pharmaceuticals, 2022).

Molecules are shown by their SMILES. Converted amounts (≈) assume the structure as drawn.

Data set [1] has as its system Aspergillus niger ATCC 16404. Put plainly: MIC by broth microdilution (RPMI 1640). The data set is classed as cell-based. Conditions: ATCC16404. How it is done: (§1) We have tested the antimicrobial activity in vitro of over 100 tris(indolyl)methane derivatives against 16 strains of Gram-positive, Gram-negative bacteria and fungi including either sensitive or drug-resistant strains from ATCC, as well as resistant clinical isolates from the culture collection of the Laboratory for Control of Hospital Infections (Sechenov University, Moscow, Russia). The minimum inhibitory concentrations (MICs) were determined by the microdilution method in a cation-adjusted Müller–Hinton medium for bacteria and in a liquid culture medium RPMI 1640 with L-glutamine without sodium bicarbonate for fungi in accordance with the requirements of the Institute of Clinical and Laboratory Standards (CLSI/NCCLS). […] As a rule, their activity against Gram-negative bacteria was usually not that high. […] For comparison, the antimicrobial activity of prototype 4 is shown. The antibacterial antibiotic levofloxacin and the antifungal amphotericin B were used as reference drugs (Table 1).
(§2) The synthesis of compounds and the scheme of their preparation and purification, as well as physicochemical characteristics, were described earlier. To evaluate the biological activity in vitro, the compounds were dissolved in DMSO at a concentration of 2.0–6.4 mg/mL, followed by preparation of two-fold dilutions in the same solvent, if necessary. The solutions were further diluted in an aqueous medium for the final concentration of DMSO not to exceed 1%, and the concentration of the compounds ranged from 64.0 to 0.13 μg/mL. To study compounds in vivo, solutions for intravenous administration in 5% glucose solution were prepared. Solutions were sterilized by filtration through 0.22 µm filters (Millipore, Burlington, MA, USA).
(§3) Strains of Gram-positive, Gram-negative bacteria and fungi including sensitive or drug-resistant strains from ATCC, as well as resistant clinical isolates from the culture collection of the Laboratory for Control of Hospital Infections (Sechenov University, Moscow, Russia), were used. Clinical isolates of Gram-positive bacteria Staphylococcus aureus 5 (MRSA), Staphylococcus aureus 10, Staphylococcus aureus 100KC (MRSA), Staphylococcus epidermidis 533, Staphylococcus haemoliticus 585 and Enterococcus faecium 569, as well as collection cultures of Gram-positive bacteria Staphylococcus aureus ATCC 700699, Staphylococcus aureus ATCC 25923, Staphylococcus aureus ATCC 3798 and collection cultures of Gram-negative bacteria Escherichia coli ATCC 25922, Klebsiella pneumoniae ATCC 13883, Proteus vulgaris ATCC 13315, Salmonella cholerasuis ATCC 14028, Pseudomonas aeruginosa ATCC 27853 and collection cultures of the yeast Candida albicans ATCC 14053 and the fungi Aspergillus niger ATCC 16404 were used. To grow the microorganisms, we used Trypticase Soy Agar (TSA, Sigma-Aldrich Co., Burlington, MA, USA). Trypticase Soy Agar, BBL, was used for cultivation of Staphylococcus spp. and E. coli. For cultivation of Enterococcus spp. and P. aeruginosa we used a ready-made dry medium Columbia Agar Base, BBL. The media were sterilized by autoclaving at 121 °C for 15 min. Yeast culture C. albicans was grown on Sabouraud agar (peptone—10 g, glucose—40 g, agar—20 g, distilled water—1 L, pH 6.0), and filamentous fungi A. niger was grown on potato–glucose agar (potatoes—200 g, glucose—20 g, agar—15 g, distilled water—1 L, pH 5.5–6.0).
(§4) To determine the antibacterial effect, a liquid Müller–Hinton medium (Becton, Dickinson and Company, Cockeysville, MD, USA) was used; to determine the effect of compounds on fungi we used RPMI 1640 medium with L-glutamine, without sodium bicarbonate, which was prepared from a dry medium (ICN Biomedicals Inc., Costa Mesa, CA, USA) by dilution in distilled water, subsequent buffering with 0.165 M of morpholinepropanesulfonic acid (MOPS, Acros Organics B.V.B.A., Morris Plains, NJ, USA) and adjusting the pH of the medium to 7.0 by adding 1 N of NaOH solution. […]
For orientation: In broth dilution the organism is exposed to a series of concentrations in liquid medium.

Data set [2] deals with Candida albicans ATCC 14053. In words: MIC by broth microdilution (RPMI 1640). The data set is classed as cell-based. To be noted: ATCC14053. How it is done:
as §1, §2, §3, §4

Data set [3] can be described thus: Cytotoxic activity, MTT assay. To be noted: human, HPF-hTERT. The data set is classed as cell-based, human. On the procedure:
The cytotoxic activity of the compounds was evaluated on the healthy donor (postnatal) human fibroblasts immortalized by transfection of the hTERT gene of the catalytic component of telomerase (hereinafter HPF-hTERT) that were obtained from N.N. Blokhin Russian Cancer Research Center. HFC-hTERT cells were cultured in Dulbecco’s modified medium (DMEM) containing 2 mM of L-glutamine, 10% fetal calf serum, 100 U/mL of penicillin and 100 μg/mL of streptomycin. Incubation was performed in a humidified atmosphere of 5% CO2 at 37 °C. In the experiment, we used cells in the logarithmic growth phase. To study the cytotoxicity of compounds, 190 μL of cell suspension (~2 thousand cells per well) was added to the wells of 96-well plates and incubated for 16 h. On the day of the experiment, serial dilutions of the test compounds were prepared in DMSO (stock solution—10 mM in 100% DMSO). Further dilutions were conducted in a nutrient medium. The final concentrations of compounds in the experiment were in a concentration range from 0.0025 to 50 μM. The final concentration of DMSO was 1% or less. Each concentration was presented in 3 repetitions. […] The cells were incubated with the test compounds for 72 h. After the end of incubation, 20 μL of MTT solution in growth medium (5 mg/mL) was added to the wells. The cells were incubated for 2 h until a purple color developed, after which the culture medium was removed. DMSO was added to the wells, and the sediment was suspended. Optical density was measured with a Thermo Scientific Multiscan FC spectrophotometer at 570 nm. The values of optical density in wells without addition of test compounds (control) were taken as 100% cell survival. The percentage of survival of cells incubated with the test compounds was calculated by dividing the optical density in the corresponding well (average of 3 independent measurements) by the optical density in the control. The concentration of drugs causing 50% cell death (IC50) was evaluated and expressed in μg/mL.

Data set [4] deals with Enterococcus faecium 569. Put plainly: MIC by broth microdilution. The data set is classed as cell-based. To be noted: Enterococcus faecium 569. How it is done: as §1, §2, §3, §4
The subject of data set [5] is Escherichia coli ATCC 25922. Put plainly: MIC by broth microdilution. The data set is classed as cell-based. Conditions: ATCC25922. How it is done: as §1, §2, §3, §4
In data set [6] the test system is Klebsiella pneumoniae ATCC 13883. In words: MIC by broth microdilution. The data set is classed as cell-based. Conditions: ATCC13883. How it is done:
as §1, §2, §3, §4

The test system of data set [7] is Proteus vulgaris ATCC 13315. Put plainly: MIC by broth microdilution. The data set is classed as cell-based. To be noted: ATCC13315. On the procedure:
as §1, §2, §3, §4

In data set [8] the test system is Pseudomonas aeruginosa ATCC 27853. In words: MIC by broth microdilution. The data set is classed as cell-based. To be noted: ATCC27853. On the procedure: as §1, §2, §3, §4
For data set [9], the system named is Salmonella cholerasuis ATCC 14028. Put plainly: MIC by broth microdilution. To be noted: ATCC14028. The data set is classed as cell-based. How it is done:
as §1, §2, §3, §4

The test system of data set [10] is Staphylococcus aureus 100KC. Put plainly: MIC by broth microdilution. To be noted: Staphylococcus aureus 100KC (MRSA). The data set is classed as cell-based. How it is done: as §1, §2, §3, §4
Data set [11] relates to Staphylococcus aureus 10. Put plainly: MIC by broth microdilution. The data set is classed as cell-based. How it is done: as §1, §2, §3, §4
The test system of data set [12] is Staphylococcus aureus 5. In words: MIC by broth microdilution. To be noted: Staphylococcus aureus 5 (MRSA). The data set is classed as cell-based. On the procedure:
as §1, §2, §3, §4

Data set [13] deals with Staphylococcus aureus ATCC 25923. Put plainly: MIC by broth microdilution. The data set is classed as cell-based. Conditions: ATCC25923. On the procedure:
as §1, §2, §3, §4

The test system of data set [14] is Staphylococcus aureus ATCC 3798. Put plainly: MIC by broth microdilution. The data set is classed as cell-based. To be noted: ATCC3798. On the procedure: as §1, §2, §3, §4
Data set [15] has as its system Staphylococcus aureus ATCC 700699. In words: MIC by broth microdilution. To be noted: ATCC700699. The data set is classed as cell-based. How it is done:
as §1, §2, §3, §4

Data set [16] concerns Staphylococcus epidermidis 533. In words: MIC by broth microdilution. The data set is classed as cell-based. On the procedure: as §1, §2, §3, §4
The test system of data set [17] is Staphylococcus haemoliticus 585. In words: MIC by broth microdilution. The data set is classed as cell-based. Conditions: Staphylococcus haemoliticus 585. On the procedure:
as §1, §2, §3, §4

The subject of data set [18] is Gram-positive bacteria. Put plainly: MIC against Gram-positive bacteria. The data set is classed as cell-based. How it is done:
as §1
(§5) The minimum inhibitory concentrations (MIC) for Gram-positive and Gram-negative bacteria were determined by two-fold serial microdilution method in a cation-adjusted Müller–Hinton medium for bacteria and in a liquid culture medium RPMI 1640 with L-glutamine without sodium bicarbonate for fungi in accordance with the requirements of the Institute of Clinical and Laboratory Standards (CLSI/NCCLS). The antibacterial antibiotic levofloxacin and the antifungal antibiotic amphotericin B from Sigma-Aldrich were used as reference drugs.

For data set [19], the system named is yeast (Candida albicans) and fungi (Aspergillus niger). Put plainly: Antifungal activity. The data set is classed as cell-based. Conditions: Candida albicans and Aspergillus niger. How it is done:
as §1, §5

For `C[C@@H]1[C@H](O)[C@@H](C)/C=C/C=C/C=C/C=C/C=C/C=C/C=C/[C@H](O[C@@H]2O[C@H](C)[C@@H](O)[C@H](N)[C@@H]2O)C[C@@H]2O[C@](O)(C[C@@H](O)C[C@@H](O)[C@H](O)CC[C@@H](O)C[C@@H](O)CC(=O)O[C@H]1C)C[C@H](O)[C@H]2C(=O)O` [Amphotericin B, amphotericin B, reference compound], the minimum inhibitory concentration (MIC) in data set [1] and in data set [2] was 1 µg/mL (≈ 1.08 µM) each time. In data set [3], this compound had a concentration for half-maximal inhibition (IC50) at 72 h of 0.7 µg/mL (≈ 0.758 µM).

`CCCn1cc([C+](c2cn(CCC)c3ccccc23)c2cn(CCC)c3ccccc23)c2ccccc21.[Cl-]` [Compound 4, tris(1-propyl-1H-indol-3-yl) methylium chloride]: the MIC in data set [4] was 1 µg/mL; in data set [5], 32 µg/mL; in data set [6], over 64 µg/mL; in data set [7], 1 µg/mL; in [8] it was 64 µg/mL; in data set [9] it was 32 µg/mL. The minimum inhibitory concentration (MIC) stood at 0.5 µg/mL in data set [10]; 0.25 µg/mL in data set [11]; 0.5 µg/mL in [12]; 0.25 µg/mL in data set [13]; 0.25 µg/mL in [14]; 0.25 µg/mL in data set [15]. In addition, the MIC in data set [16] came out at 0.13 µg/mL; in [17] it was 0.5 µg/mL; in data set [1] it was 2 µg/mL; in data set [2], 1 µg/mL; in data set [18], 0.25 µg/mL; in [19] it was 2 µg/mL. Also, the midpoint of inhibition in data set [3], the IC50 at 72 h, lay at 0.07 µg/mL.

What is called MIC is the lowest concentration found to suppress growth. A word on the IC50: it is the concentration that inhibits the measured activity by half.
